Experiment: Human HepG2 cell viability assay in 384 well format
Format: toxicity, cell-based
Parameters: dose 125 nL, time 70.5 hour; cytotoxicity at 70.5 h: concentration not given beside the values
Conditions: HepG2 cells, read-out: Inhibition

Compound `COc1nn(C)cc1C(=O)NCC(=O)NCc1ccccn1` has a cytotoxicity at 70.5 h of -11%.
Compound `COC1COC2(CCN(C(=O)c3ncccn3)CC2)C1` (stereo not drawn) has a cytotoxicity at 70.5 h of 14.8%.
Work on `O=C(NCc1ccccc1)N1Cc2nc(COCC3CC3)oc2C1` yielded a cytotoxicity at 70.5 h of 4.6%.
Work on `O=C([C@@H]1CC[C@@H]2[C@@H](CCN2c2ncccn2)O1)N1CCCO1` yielded a cytotoxicity at 70.5 h of 11.8%.
Compound `CC(=O)N1CC2(CCN(C(=O)C3CC3)CC2)c2cc(C)ccc21` has a cytotoxicity at 70.5 h of 6.48%.
For `CN(Cc1cccnc1)C1CC2(CCN(C(=O)c3ccnnc3)CC2)C1`, the cytotoxicity at 70.5 h was -13.1%.
`Cc1ccoc1C(=O)N1CC[C@@]2(C[C@H](NS(C)(=O)=O)CCO2)C1` gave a cytotoxicity at 70.5 h of -18.1%.
In the case of `Cc1ccc(N2CCC3(CCN(Cc4ccccn4)CC3)CC2)nn1`, the cytotoxicity at 70.5 h is reported as -11.7%.
Compound `CCC(=O)N1CCC2(CC1)CN(C(C)=O)c1ccc(C)cc12` has a cytotoxicity at 70.5 h of -9.39%.
In the case of `O=S(=O)(c1cccs1)N1CCN2C[C@H](OCC3CC3)C[C@H]2C1`, the cytotoxicity at 70.5 h is reported as -3.74%.
For `CC(C)C(=O)N1CCN(S(=O)(=O)C2CC2)CC2(CC(=O)N(C)C2)C1` (stereo not drawn), the cytotoxicity at 70.5 h was -6.71%.
Work on `Cc1ccc(N2CCC3(CCN(Cc4nccs4)CC3)CC2)nn1` yielded a cytotoxicity at 70.5 h of -7.07%.
Compound `CC(C)C(=O)N1CCN(S(C)(=O)=O)CC2(CC(=O)N(C)C2)C1` (stereo not drawn) has a cytotoxicity at 70.5 h of -7.11%.
Compound `CCS(=O)(=O)N1CCN(C(=O)NC(C)C)CC2(CC(=O)N(C)C2)C1` (stereo not drawn) has a cytotoxicity at 70.5 h of -7.37%.
Work on `O=C(c1ccco1)N1CC[C@H]2[C@H]1CCN2S(=O)(=O)C1CC1` yielded a cytotoxicity at 70.5 h of -8.4%.
With `Cc1ccc(CN2CCC3(CCN(Cc4ccncc4)CC3)CC2)cc1` the cytotoxicity at 70.5 h was -3.02%.
`CCN1CCC2(COCc3c(C)nc(N4CCOCC4)nc32)C1` (stereo not drawn) gave a cytotoxicity at 70.5 h of 11.1%.
For `CCS(=O)(=O)N1Cc2nccn2CC(CN2CCCC2)C1` (stereo not drawn), the cytotoxicity at 70.5 h was 4.02%.
For `O=C1[C@H]2CN(C3CCOCC3)C[C@H]2CN1Cc1cccnc1`, the cytotoxicity at 70.5 h was 3.06%.
`CCCc1nnsc1C(=O)N1CCN(CC(O)C2CC2)CC1` (stereo not drawn) showed a cytotoxicity at 70.5 h of 14.6%.
In the case of `CCCc1nnsc1C(=O)N1CCN(CC(O)c2ccco2)CC1` (stereo not drawn), the cytotoxicity at 70.5 h is reported as -0.0412%.
For `COc1ccc(CNC(=O)N2CCN(CC(O)C3CC3)CC2)cc1` (stereo not drawn), the cytotoxicity at 70.5 h was -3%.
Compound `O=C(Nc1cccc(F)c1)C1=NOC2(CCNCC2)C1` has a cytotoxicity at 70.5 h of -4.38%.
Work on `O=C(CN1CCN(CC(O)C2CC2)CC1)NCc1ccccc1Cl` (stereo not drawn) yielded a cytotoxicity at 70.5 h of -10.5%.
`OC(CN1CCN(Cc2cccc(F)c2)CC1)C1CC1` (stereo not drawn) gave a cytotoxicity at 70.5 h of -11.3%.
With `OC(CN1CCN(Cc2cccnc2)CC1)c1cccs1` (stereo not drawn) the cytotoxicity at 70.5 h was -3.13%.
For `CCO[C@@H]1C[C@H]2CN(S(=O)(=O)c3cccs3)CCN2C1`, the cytotoxicity at 70.5 h was -4.39%.
With `O=C1COC2(CCN(c3ccccn3)CC2)CN1` the cytotoxicity at 70.5 h was -19.6%.
`COc1ncnc2c1CCN(Cc1nccs1)CC2` gave a cytotoxicity at 70.5 h of -8.56%.
For `O=C(C[C@@H]1COC[C@H]2CN(CC3CC3)C[C@@H]12)N1CCCCO1`, the cytotoxicity at 70.5 h was 5.39%.
For `Cc1ccnc(OC[C@@]23CCO[C@@H]2CCN(c2ncc(F)cn2)C3)n1`, the cytotoxicity at 70.5 h was -6.92%.
`Cc1cc(CN2C[C@H]3CCC[C@@]3(COCc3csc(C)n3)C2)no1` gave a cytotoxicity at 70.5 h of -9.15%.
Compound `Cc1nc(COC[C@@]23CCC[C@@H]2CN(CC2CCOCC2)C3)cs1` has a cytotoxicity at 70.5 h of -9.04%.
`O=C(c1cocn1)N1CCC2(CC1)COC(COCc1ccccn1)C2` (stereo not drawn) gave a cytotoxicity at 70.5 h of 0.202%.
`c1ncn(Cc2cn3c(n2)CN(CC2CCCC2)CC3)n1` gave a cytotoxicity at 70.5 h of 1.84%.
For `CN(C)[C@@H]1CCN(C(=O)C2CCOCC2)[C@H]1Cc1ccncc1`, the cytotoxicity at 70.5 h was 6.4%.
With `CN(C)C(=O)CN1CC[C@H]2[C@H]1CCN2c1ncccn1` the cytotoxicity at 70.5 h was -20.8%.
In the case of `CCN(C)c1ncnc2c1CCN(Cc1nccs1)CC2`, the cytotoxicity at 70.5 h is reported as 6.96%.
With `Cc1ccc(CN2CCC3(CC2)CCN(Cc2ccoc2)CC3)cc1` the cytotoxicity at 70.5 h was -5.46%.
Compound `Cc1ccc(CN2CCC3(CC2)CCN(Cc2ccco2)CC3)cc1` has a cytotoxicity at 70.5 h of -6.1%.
For `CN1CCN(C[C@H]2OC[C@@H]3CCN(C(=O)c4cnccn4)C[C@@H]32)CC1`, the cytotoxicity at 70.5 h was -2.22%.
`CCOCC1CN(CCOc2ccc(Cl)cc2)Cc2c1cnn2C` (stereo not drawn) gave a cytotoxicity at 70.5 h of 2.89%.
In the case of `Cc1ccc(CN2C[C@H](N3CCOCC3)[C@@H]3OCCC[C@@H]32)o1`, the cytotoxicity at 70.5 h is reported as -0.951%.
